According to publication PMC7614687, “Modulation of the substrate specificity of the kinase PDK1 by distinct conformations of the full-length protein*” (Science signaling, 2023):

Columns and labels:
[1] = target: T1, full-length PDK1 (GST-PDK1_1-556) (Homo sapiens, UniProt O15530); assay: Lipid overlay assay, di-C18-PIP3, full-length PDK1; type: binding
T1 construct: made in house; host or cells: HEK293 cells (transient transfection of pEBG2T)
T1 sequence (O15530 1-556): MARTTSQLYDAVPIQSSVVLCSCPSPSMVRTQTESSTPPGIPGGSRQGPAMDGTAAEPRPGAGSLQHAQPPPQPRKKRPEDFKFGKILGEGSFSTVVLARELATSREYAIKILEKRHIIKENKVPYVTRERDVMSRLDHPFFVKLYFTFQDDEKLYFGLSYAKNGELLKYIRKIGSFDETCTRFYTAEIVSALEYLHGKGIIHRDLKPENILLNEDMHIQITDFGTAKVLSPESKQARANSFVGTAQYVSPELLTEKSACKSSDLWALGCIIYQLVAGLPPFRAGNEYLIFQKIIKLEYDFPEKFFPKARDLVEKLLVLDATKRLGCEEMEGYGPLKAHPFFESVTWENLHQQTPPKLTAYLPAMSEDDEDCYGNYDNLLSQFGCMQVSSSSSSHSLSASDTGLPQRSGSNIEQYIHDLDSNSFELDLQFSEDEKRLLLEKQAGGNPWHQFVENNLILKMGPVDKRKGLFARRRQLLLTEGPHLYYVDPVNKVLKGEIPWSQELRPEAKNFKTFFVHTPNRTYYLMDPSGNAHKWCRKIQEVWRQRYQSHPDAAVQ
Procedure: Dots containing 2-1000 picomoles of di-C18-PIP3 ([70]) were prepared by spotting 1 μL of serial dilution stock solutions (2-1000 μM dissolved in a 1:2:0.8 by volume mixture of chloroform/methanol/water) onto Hybond-C extra membrane (GE Healthcare), which were dried at room temperature. Membranes were incubated with blocking buffer (50 mm Tris-HCl buffer pH 7.5, 2 mg/ml fatty acid free bovine serum albumin, 150 mM NaCl, and 0.1% (v/v) Tween 20) for 1 h at room temperature. Membranes were then incubated with 10 nM protein/10 μM inhibitor mixes in blocking buffer with gentle rocking overnight at 4 °C. Membranes were washed 10 times over 1 h at room temperature using TBST buffer (50 mM Tris-HCl pH 7.5, 150 mM NaCl, 0.1% (v/v) Tween 20) before being incubated for 1 h with 1:2000 dilution of rabbit recombinant anti-PDK1 monoclonal antibody (New England Biolabs). Membranes were washed and incubated with 1:2000 dilution of anti-rabbit HRP conjugated antibody (Invitrogen/Thermo Fisher) for 1 h at room temperature. Finally, after washing, proteins bound to the membranes were detected using Novex ECL chemiluminescent reagent (Invitrogen/Thermo Fisher) and developed on X-ray film.

GST-PDK1_1-556 = target: T2, GST-PDK1_1-556 (Homo sapiens, UniProt O15530); assay: AlphaScreen biotin-GS-022 / GST-PDK1_1-556 interaction; type: binding
T2 construct: made in house; host or cells: HEK293 cells (transient transfection of pEBG2T); peptide synthesized by Pepscan
T2 sequence (O15530 1-556): T1 sequence (O15530 1-556)
Description: 163 independent experiments. (F-G) Interaction and displacement of interactions using
164 AlphaScreen technlology. (F) Interaction of biotin-GS-022 with GST-PDK11-556 and GST-
165 PDK11-359. N=2 independent experiments. (G) Effect of HYG8 on the interaction between
166 biotin-GS-022 and GST-PDK11-556. N=2 independent experiments.
167 The Thermo Fisher Scientific “PDK1 Direct” assay produced results quite different from those
168 obtained using our PDK1 kinase assay which uses [γ32P]ATP and T308tide
169 ([…]) as substrates. Phosphorylation of T308tide and of the alternative
170 peptides GS-022 ([…]) and GS-023 ([…]-K(5-FAM)) was
171 compared. GS-023 and GS-022 were phosphorylated efficiently by GST-PDK11-556, with over
172 30 and 10-fold higher turnover than T308tide, respectively (fig. S2A). The increased
174 GS-023 peptide provided a degree of improvement of substrate phosphorylation by PDK11-
175 556. GST-PDK11-359, comprising only the catalytic domain but lacking the linker region and the
176 PH domain, phosphorylated the three substrates similarly, with a slight increased turnover
177 towards GS-023 (fig. S2B). Thus, the phosphorylation of GS-23 and GS-022, but not that of
178 T308tide, depended on the construct used (figs. S2C-E). To assess a possible differential […]
180 that measured the interaction of biotin-GS-022 with GST-PDK11-556 and GST-PDK11-359. […]

PDK1 = target: T3, PDK1 (Homo sapiens, UniProt O15530); assay: PDK1 activity assay with T308tide and [γ32P]ATP; type: biochemical; parameters: made in house; host or cells: HEK293 (GST fusion) or Sf9 insect cells (His form); conditions: full-length PDK1
T3 sequence (O15530 1-556): T1 sequence (O15530 1-556)
Procedure: The PDK1 activity assay using T308tide as a substrate was performed essentially as previously described ([18], [28], [54]). In brief, the assay was performed in a 20 μl format containing 50 mM Tris pH 7.5, 0.05 mg/ml BSA, 0.1% ß-mercaptoethanol, 10 mM MgCl2, 100 μM [γ^32P]ATP (5-50 cpm/pmol), 0.003% Brij, 150-500 ng PDK1, and T308tide (0.3 mM) at room temperature. The assay was performed in 96 well plated and stopped by the addition of 5 μl of 0.1 % phosphoric acid. 4 μl aliquots were spotted on p81 phosphocellulose papers (Whatmann) using ep motion 5070 (Eppendorf). The phosphocellulose papers were washed in 0.01% phosphoric acid, dried, and exposed using PhosphoImager (FLA-9000 Starion). Data were analyzed with ImageQuant software (Fujifilm). Activity measurements were performed in technical duplicates or triplicates with less than 10% difference between replicates. Experiments were repeated at least twice. The activity measurements of PDK1 towards GS-022 and GS-023 were performed similarly, with the GS-peptides replacing T308tide at the indicated concentrations. GS-022 and GS-023 have features consistent with the loose characteristics disclosed for the peptide Ser/Thr 07, ((R/K)1-3(X)0-2 (S/T) (X)0-2(R/K)1-3, where X is any residue) used by the commercial “PDK1 Direct” assay.

| displacement of the interaction between PIP3 and full-length PDK1_1-556 [1] | effect on interaction between GS-022 and PDK1_1-556 (GST-PDK1_1-556) | effect on activity of full-length PDK1 toward T308tide (PDK1) | Structure (SMILES) |
| --- | --- | --- | --- |
| much more potent | – | – | CCCCO[C@H]1[C@@H](OP(=O)(O)O)[C@H](OP(=O)(O)O)[C@@H](OP(=O)(O)O)[C@H](OP(=O)(O)O)[C@H]1OP(=O)(O)O [HYG14, 2-O-butyl-IP5] |
| – | potently | partially inhibited | O=C(O[C@H]1[C@@H](OP(=O)(O)O)[C@H](OP(=O)(O)O)[C@@H](OP(=O)(O)O)[C@H](OP(=O)(O)O)[C@H]1OP(=O)(O)O)c1ccccc1 [HYG8, 2-O-benzoyl-IP5] |
